Results: patent US20240166693A1, “METHODS AND COMPOUNDS FOR MODULATING MYOTONIC DYSTROPY 1” (Design Therapeutics, Inc., priority 2020, published 2024)
Starred links: 1 amine or outer side, 2 acyl side, 3 side chain; linkers in the order of their positions; H or OH if unused. Positions of bridges follow the written chain, without caps; N, C: chain ends. Non-standard residues stand in square brackets, D forms with d. Residues, ends and D or L forms follow the SMILES beside them. Chains are numbered I, II in the order given. *: point of attachment. ImPyβIm = Cn1cc(NC(=O)c2nccn2C)cc1C(=O)NCCC(=O)Nc1cn(C)c(C(=O)*)n1; HN(CH2CH2O)5CH2CH2NH = C(COCCOCCOCCOCCOCCN[*:2])N[*:1]; 4Amino1MeIm2CO = Cn1cc(N[*:1])nc1C(=O)[*:2]; Benzoyl(4-tBu) = CC(C)(C)c1ccc(C(=O)*)cc1; Lys(Et2) = CCN(CC)CCCC[C@H](N)C(=O)O; X1 = Cn1cc(N[*:1])cc1C(=O)[*:2]; dDab = NCC[C@@H](N)C(=O)O

Tested on: Myotonic Dystrophy 1 affected patient fibroblasts (Coriell GM04602; 1600 CTG repeats)
Test: DM1 foci reduction assay (CAG10-Cy3 FISH, average foci per nucleus)
Type: cell-based
Conditions: Homo sapiens, Fibroblast, 48 h, read-out: Foci Reduction in Fibroblast EC50, 48 h (nM)
Method in brief: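 DM1 patient fibroblasts (GM04602, 1600 CTG) treated 48 h at 37 °C, 8-point 1:3 dilutions from 3 μM top dose; wild-type GM07492 as control. PFA-fixed, ethanol-permeabilized cells hybridized overnight with 5 nM CAG10-Cy3 probe, DAPI-counterstained, imaged at 20× in 4 fields; average foci per nucleus per well.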

Row | Structure (SMILES) | EC50 [nM]
1 | CCN(CC)CCCC[C@H](NC(=O)[C@H](CC(C)C)NC(=O)[C@H](C)NC(=O)[C@H](Cc1ccccc1)NC(=O)c1ccc(C(C)(C)C)cc1)C(=O)N[C@@H](CO)C(=O)NCCOCCOCCNC(=O)CCNC(=O)c1nc(NC(=O)c2cc(NC(=O)CCNC(=O)c3[nH]c(NC(=O)CCCNC(=O)c4cc(NC(=O)c5nc(NC(=O)CCNC(=O)c6cc(NC(=O)c7nccn7C)cn6C)cn5C)cn4C)cc3C)cn2C)cn1C [Compound 64] | < 100
2 | CCN(CC)CCCC[C@H](NC(=O)[C@H](CC(C)C)NC(=O)[C@H](C)NC(=O)[C@H](Cc1ccccc1)NC(=O)c1ccc(C(C)(C)C)cc1)C(=O)N[C@@H](CO)C(=O)NCCOCCOCCOCCOCCOCCNC(=O)c1cc(NC(=O)c2nc(NC(=O)c3cc(NC(=O)[C@H](N)CCNC(=O)c4nc(NC(=O)CCNC(=O)c5cc(NC(=O)c6nccn6C)cn5C)cn4C)cn3C)cn2C)cn1C [Compound 116] | > 500
3 | CN(CCCC[C@H](NC(=O)[C@H](CCCN1CCOCC1)NC(=O)[C@@H](NC(=O)[C@H](Cc1ccccc1)NC(=O)c1ccc(C(C)(C)C)cc1)C1CCC1)C(=O)N[C@@H](CO)C(=O)NCCOCCOCCOCCOCCOCCNC(=O)CCNC(=O)c1nc(NC(=O)c2cc(NC(=O)CCNC(=O)c3nc(NC(=O)CCCNC(=O)c4cc(NC(=O)c5nc(NC(=O)CCNC(=O)c6cc(NC(=O)c7nccn7C)cn6C)cn5C)cn4C)cn3C)cn2C)cn1C)C1CC2CCC1C2 (stereo partly shown) [Compound 149] | 100 to 500
4 | CCN(CC)CCCC[C@H](NC(=O)[C@H](CC(C)C)NC(=O)[C@H](C)NC(=O)[C@H](Cc1ccccc1)NC(=O)c1ccc(C(C)(C)C)cc1)C(=O)N[C@@H](CO)C(=O)NCCOCCOCCNC(=O)c1cc(NC(=O)c2cc(NC(=O)c3nc(NC(=O)c4cc(NC(=O)[C@@H](N)CCNC(=O)c5nc(NC(=O)c6cc(NC(=O)c7cc(NC(=O)c8nccn8C)cn7C)cn6C)cn5C)cn4C)cn3C)cn2C)cn1C [Compound 78] | > 500
5 | CCN(CC)CCCC[C@H](NC(=O)COCCOCCNC(=O)c1ccc(C(C)(C)C)cc1)C(=O)N[C@@H](CO)C(=O)NCCOCCOCCOCCOCCOCCNC(=O)CCNC(=O)c1nc(NC(=O)c2cc(NC(=O)CCNC(=O)c3nc(NC(=O)CCCNC(=O)c4cc(NC(=O)c5nc(NC(=O)CCNC(=O)c6cc(NC(=O)c7nccn7C)cn6C)cn5C)cn4C)cn3C)cn2C)cn1C [Compound 66] | 100 to 500
6 | CC(C)C[C@H](NC(=O)[C@H](C)NC(=O)[C@H](Cc1ccccc1)NC(=O)c1ccc(C(C)(C)C)cc1)C(=O)N[C@@H](CCCCN(C)C1CC2CCC1C2)C(=O)N[C@@H](CO)C(=O)NCCOCCOCCNC(=O)c1cc(NC(=O)c2cc(NC(=O)c3nc(NC(=O)c4cc(NC(=O)[C@@H](N)CCNC(=O)c5nc(NC(=O)CCNC(=O)c6cc(NC(=O)c7nccn7C)cn6C)cn5C)cn4C)cn3C)cn2C)cn1C (stereo partly shown) [Compound 83] | > 500
7 | CCN(CC)CCCC[C@H](NC(=O)[C@H](CC(C)C)NC(=O)[C@H](C)NC(=O)[C@H](Cc1ccccc1)NC(=O)c1ccc(C(C)(C)C)cc1)C(=O)N[C@@H](CO)C(=O)NCCOCCOCCOCCNC(=O)CCNC(=O)c1nc(NC(=O)c2cc(NC(=O)CCNC(=O)c3nc(NC(=O)CCCNC(=O)c4cc(NC(=O)c5nc(NC(=O)CCNC(=O)c6cc(NC(=O)c7nccn7C)cn6C)cn5C)cn4C)cn3C)cn2C)cn1C [Compound 73] | < 100
8 | CC(C)C[C@H](NC(=O)[C@H](C)NC(=O)[C@H](Cc1ccccc1)NC(=O)c1ccc(C(C)(C)C)cc1)C(=O)N[C@@H](CCCCN(C)C1CC2CCC1C2)C(=O)N[C@@H](CO)C(=O)NCCOCCOCCNC(=O)CCNC(=O)c1nc(NC(=O)c2cc(NC(=O)CCNC(=O)c3nc(NC(=O)CCCNC(=O)c4cc(NC(=O)c5nc(NC(=O)CCNC(=O)c6cc(NC(=O)c7nccn7C)cn6C)cn5C)cn4C)cn3C)cn2C)cn1C (stereo partly shown) [Compound 77] | < 100
9 | CCN(CC)CCCC[C@H](NC(=O)OC(C)(C)C)C(=O)N[C@@H](CO)C(=O)NCCOCCOCCOCCOCCOCCNC(=O)CCNC(=O)c1nc(NC(=O)c2cc(NC(=O)CCNC(=O)c3nc(NC(=O)CCCNC(=O)c4cc(NC(=O)c5nc(NC(=O)CCNC(=O)c6cc(NC(=O)c7nccn7C)cn6C)cn5C)cn4C)cn3C)cn2C)cn1C [Compound 157] | 100 to 500
10 | CCN(CC)CCCC[C@H](NC(=O)[C@H](CC(C)C)NC(=O)[C@H](C)NC(=O)[C@H](Cc1ccccc1)NC(=O)c1ccc(C(C)(C)C)cc1)C(=O)N[C@@H](CO)C(=O)NCCOCCOCCOCCOCCOCCNC(=O)c1cc(NC(=O)c2cc(NC(=O)c3nc(NC(=O)c4cc(NC(=O)[C@@H](CCNC(=O)c5nc(NC(=O)CCNC(=O)c6cc(NC(=O)c7nccn7C)cn6C)cn5C)NC(C)=O)cn4C)cn3C)cn2C)cn1C [Compound 114] (I: {Benzoyl(4-tBu)}-FAL[Lys(Et2)]S / II: Ac-[dDab](ImPyβIm)[X1][4Amino1MeIm2CO][X1][X1]; linker I:C-II:C via HN(CH2CH2O)5CH2CH2NH) | > 500
11 | CCN(CC)CCCC[C@H](NC(=O)[C@H](CC(C)C)NC(=O)[C@H](C)NC(=O)[C@H](Cc1ccccc1)NC(=O)c1ccc(C(C)(C)C)cc1)C(=O)N[C@@H](CO)C(=O)NCCOCCOCCOCCOCCOCCNC(=O)c1cc(NC(=O)c2nc(NC(=O)CCCNC(=O)c3cc(NC(=O)c4nc(NC(=O)CCNC(=O)c5cc(NC(=O)c6nccn6C)cn5C)cn4C)cn3C)cn2C)cn1C [Compound 110] | > 500
12 | CCN(CC)CCCC[C@H](NC(=O)[C@H](CC(C)C)NC(=O)[C@H](C)NC(=O)[C@H](Cc1ccccc1)NC(=O)c1ccc(C(C)(C)C)cc1)C(=O)N[C@@H](CO)C(=O)NCCOCCOCCOCCOCCOCCNC(=O)c1nc(NC(=O)CCNC(=O)c2cc(NC(=O)c3nc(NC(=O)CCNC(=O)c4cc(NC(=O)c5nc(NC(=O)CCNC(=O)c6cccn6C)cn5C)cn4C)cn3C)cn2C)cn1C [Compound 10] | > 500
13 | CCN(CC)CCCC[C@H](NC(=O)[C@H](CC(C)C)NC(=O)[C@H](C)NC(=O)[C@H](Cc1ccccc1)NC(=O)c1ccc(C(C)(C)C)cc1)C(=O)N[C@@H](CO)C(=O)NCCOCCOCCN(C)C(=O)CCNC(=O)c1nc(NC(=O)c2cc(NC(=O)CCNC(=O)c3nc(NC(=O)CCCNC(=O)c4cc(NC(=O)c5nc(NC(=O)CCNC(=O)c6cc(NC(=O)c7nccn7C)cn6C)cn5C)cn4C)cn3C)cn2C)cn1C [Compound 74] | < 100
14 | CCN(CC)CCCC[C@H](NC(=O)[C@H](CC(C)C)NC(=O)[C@H](C)NC(=O)[C@H](Cc1ccccc1)NC(=O)c1ccc(C(C)(C)C)cc1)C(=O)N[C@@H](CO)C(=O)NCCOCCOCCOCCOCCOCCNC(=O)c1cc(NC(=O)c2cc(NC(=O)c3nc(NC(=O)c4cc(NC(=O)[C@@H](N)CCNC(=O)c5nc(NC(=O)CCNC(=O)c6cc(NC(=O)c7nccn7C)cn6C)cn5C)cn4C)cn3C)cn2C)cn1C [Compound 56] | > 500
15 | CCN(CC)CCCC[C@H](NC(=O)[C@H](CC(C)C)NC(=O)[C@H](C)NC(=O)[C@H](Cc1ccccc1)NC(=O)c1ccc(C(C)(C)C)cc1)C(=O)N[C@@H](CO)C(=O)NCCOCCOCCOCCOCCOCCOCCOCCOCCOCCOCCOCCOCCOCCOCCOCCNC(=O)CCNC(=O)c1nc(NC(=O)c2cc(NC(=O)CCNC(=O)c3nc(NC(=O)CCCNC(=O)c4cc(NC(=O)c5nc(NC(=O)CCNC(=O)c6cc(NC(=O)c7nccn7C)cn6C)cn5C)cn4C)cn3C)cn2C)cn1C [Compound 27] | < 100
16 | CCN(CC)CCCC[C@H](NC(=O)[C@H](CC(C)C)NC(=O)[C@H](C)NC(=O)[C@H](Cc1ccccc1)NC(=O)c1ccc(C(C)(C)C)cc1)C(=O)N[C@@H](CO)C(=O)NCCOCCOCCOCCOCCOCCNC(=O)c1nc(NC(=O)CCNC(=O)c2cc(NC(=O)c3nc(NC(=O)CCCNC(=O)c4cc(NC(=O)c5nc(NC(=O)c6cc(NC(=O)c7cccn7C)cn6C)cn5C)cn4C)cn3C)cn2C)cn1C [Compound 107] | > 500
17 | CCN(CC)CCCC[C@H](NC(=O)[C@H](CC(C)C)NC(=O)[C@H](C)NC(=O)[C@H](Cc1ccccc1)NC(=O)c1ccc(C(C)(C)C)cc1)C(=O)N[C@@H](CO)C(=O)Nc1ccc(C#CC#CCNC(=O)CCNC(=O)c2nc(NC(=O)c3cc(NC(=O)CCNC(=O)c4nc(NC(=O)CCCNC(=O)c5cc(NC(=O)c6nc(NC(=O)CCNC(=O)c7cc(NC(=O)c8nccn8C)cn7C)cn6C)cn5C)cn4C)cn3C)cn2C)cc1 [Compound 96] | < 100

Same assay, conditions: Homo sapiens, Fibroblast; DM1 fibroblasts, 48 h treatment, 8-point dose response, 3 μM top dose; read-out: Foci Reduction in Fibroblast EC50, 48 h

Row | Structure (SMILES) | EC50 [nM]
18 | CN(C)[C@@H]1CN(C2CCc3cccc(F)c32)C[C@H]1c1ccc(N2CCN(S(=O)(=O)CCOCCOCCOCCOCCOCCNC(=O)CCNC(=O)c3nc(NC(=O)c4cc(NC(=O)CCNC(=O)c5nc(NC(=O)CCCNC(=O)c6cc(NC(=O)c7nc(NC(=O)CCNC(=O)c8cc(NC(=O)c9nccn9C)cn8C)cn7C)cn6C)cn5C)cn4C)cn3C)CC2)cc1 (stereo partly shown) [Compound 175] | 100 to 500
19 | CCN(c1cc(-c2ccc(CN3CCN(CCOCCOCCOCCOCCOCCNC(=O)CCNC(=O)c4nc(NC(=O)c5cc(NC(=O)CCNC(=O)c6nc(NC(=O)CCCNC(=O)c7cc(NC(=O)c8nc(NC(=O)CCNC(=O)c9cc(NC(=O)c%10nccn%10C)cn9C)cn8C)cn7C)cn6C)cn5C)cn4C)CC3)cc2)cc(C(=O)NCc2c(C)cc(C)[nH]c2=O)c1C)C1CCOCC1 [Compound 166] | > 500
20 | Cc1nc(CCC(=O)NCCOCCOCCOCCOCCOCCNC(=O)CCNC(=O)c2nc(NC(=O)c3cc(NC(=O)CCNC(=O)c4nc(NC(=O)CCCNC(=O)c5cc(NC(=O)c6nc(NC(=O)CCNC(=O)c7cc(NC(=O)c8nccn8C)cn7C)cn6C)cn5C)cn4C)cn3C)cn2C)ccc1-c1cnc(NCc2c(F)ccc3c2CCO3)n2cnnc12 [Compound 62] | > 500
21 | COc1cccc(C(=O)N2CCN(C(=O)CN(CCOCCOCCOCCOCCOCCNC(=O)CCNC(=O)c3nc(NC(=O)c4cc(NC(=O)CCNC(=O)c5nc(NC(=O)CCCNC(=O)c6cc(NC(=O)c7nc(NC(=O)CCNC(=O)c8cc(NC(=O)c9nccn9C)cn8C)cn7C)cn6C)cn5C)cn4C)cn3C)c3cccc(C)c3)CC2)c1OC [Compound 142] | 100 to 500
22 | Cn1cc(NC(=O)c2nc(NC(=O)CCNC(=O)c3cc(NC(=O)c4nc(NC(=O)CCNC(=O)c5cccn5C)cn4C)cn3C)cn2C)cc1C(=O)NCCC(=O)Nc1cn(C)c(C(=O)NCCOCCOCCOCCOCCOCCOCCOCCOCCOCCOCCN2CCC(C(=O)Nc3ncc(SCc4ncc(C(C)(C)C)o4)s3)CC2)n1 [Compound 2] | < 100
